Non-standard residues stand in square brackets, D forms with d. Residues, ends and D or L forms follow the SMILES beside them. Bip = N[C@@H](Cc1ccc(-c2ccccc2)cc1)C(=O)O; dBip = N[C@H](Cc1ccc(-c2ccccc2)cc1)C(=O)O; Dip = N[C@H](C(=O)O)C(c1ccccc1)c1ccccc1
What was measured:
[1] = system: panel of 10 lymphoma cell lines; experiment: In vitro cytotoxic activity on lymphoma cells, MTS assay, panel summary; type: cell-based, human; details: range stated in conclusions
Description: (§1) • To determine the concentrations of five novel compounds to obtain a 50% inhibition of proliferation (IC50) against a panel of 10 lymphoma cell lines. 2. Materials and Methods 2.1. Test Substances 2.1.1. Test Substances • Test substances, LTX-302, LTX-313, LTX-315, LTX-320 and LTX-329 (see Table 1) provided in powder form. 2.1.2. Positive Control • Triton X-100 was used as positive control and supplied by Oncodesign (Dijon, France) from Sigma (Saint Quentin Fallavier, France). 2.1.3. Drug vehicle and storage condition • Compounds were stored at 4° C. Powder was first dissolved in serum free culture medium (RPMI 1640, Lonza, Verviers, Belgium) and further diluted using serum-free culture medium to reach appropriate dilutions. Stock solution was not stored and was prepared fresh the day of experiment. • 1% (final concentration) Triton X-100 was obtained by dilution using culture medium. 2.2. Tumor Cell Lines and Culture Conditions 2.2.1. Tumor Cell Lines
Tumor cells were grown as suspensions at 37° C. in a humidified atmosphere (5% CO2, 95% air). The culture medium for each cell line is described in the Table 3 below. For experimental use, cells were counted in a hemocytometer and their viability was assessed by 0.25% trypan blue exclusion.
Tumor cells were plated in 96-well flat-bottom microtitration plates (Nunc, Dutscher, Brumath, France) and incubated at 37° C. for 24 hours before treatment in 190 μl of drug-free and FBS-free culture medium.
Tumor cells were incubated for 4 hours with 10 concentrations of compounds in ¼ dilution step with a top dose of 400 μM (range 4×10^−4 to […]), with 1% (final concentration) Triton X-100 as positive control and FBS-free culture medium as negative control. The cells (190 μl) were incubated in a 200 μl final volume of FBS-free culture medium containing test substances at 37° C. under 5% CO2.
Three independent experiments were performed, each concentration being issued from quadruplicate. Control cells were treated with vehicle alone. At the end of treatments, the cytotoxic activity was evaluated by a MTS assay (see §3.3 below). […]
(§2) At the end of the cells treatment, 40 μl of a 0.22 μm filtered freshly combined solution of MTS (20 ml at 2 mg/ml, Ref G1111, Batch 235897, Exp March/2009, Promega, Charbonnières, France) and PMS (1 ml at 0.92 mg/ml, Ref P9625, Batch 065K0961, Sigma) in Dulbecco's Phosphate Buffered Saline (DPBS, Ref 17-513Q, Batch 6MB0152, Cambrex), were added in each well. […] Absorbency (OD) were measured at 490 nm in each well using VICTOR^3™ 1420 multilabeled counter (Wallac, PerkinElmer, Courtaboeuf, France).
4.1. IC50 Data was Determined as in Example 1

[2] = system: panel of 37 human cancer cell lines; experiment: In vitro cytotoxic activity, MTS assay, panel summary; type: cell-based; details: range stated in conclusions
Experimental: as §1, with “2.” for “• To determine the concentrations of five novel compounds to obtain a 50% inhibition of proliferation (IC50) against a panel of 10 lymphoma cell lines. 2.”, “control,” for “control and”, “Vehicle” for “vehicle”, “Storage Conditions” for “storage condition”
Tumor cells were grown as adherent monolayers or as suspensions at 37° C. in a humidified atmosphere (5% CO2, 95% air). The culture medium was RPMI 1640 containing 2 mM L-glutamine (Lonza, Belgium) and supplemented with 10% fetal bovine serum (FBS, Lonza). For experimental use, the adherent cells were detached from the culture flask by a 5-minute treatment with trypsin-versene (Lonza), diluted in Hanks' medium without calcium or magnesium (Lonza) and neutralized by addition of complete culture medium. Cells were counted in a hemocytometer and their viability was assessed by 0.25% trypan blue exclusion.
Tumor cells were plated in 96-well flat-bottom microtitration plates (Nunc, Dutscher, Brumath, France) and incubated at 37° C. for 24 hours before treatment in 190 μl of drug-free culture medium supplemented or not with 10% FBS for adherent or suspension growing cell lines, respectively.
The adherent cell lines were washed once with 200 μl FBS-free culture medium before treatment. […]
Three (3) independent experiments were performed, each concentration being tested in quadruplicate. […] At the end of treatments, the cytotoxic activity was evaluated by a MTS assay (see §3.3). […]
as §2, with “France). […]” for “France).”
The dose-response curves were plotted using XLFit 3 (IDBS, United Kingdom). The IC50 determination values were calculated using the XLFit 3 software from semi-log curves. […]

[3] = system: murine A20 B-cell lymphoma; experiment: Intratumoral treatment of murine A20 B-cell lymphoma tumours in mice; type: in vivo; details: Group 1 (1 mg) compared to the other two groups
Experimental: The aim of the study was to investigate the effect of LTX-315 at different dose levels on a murine A20 B-cell lymphoma in mice.
The administration took place by intratumoral injection of LTX-315 dissolved in sterile saline.
Female mice were inoculated subcutaneously in the abdomen with 5 million murine A20 cells (ATCC, LGC Promochem AB, Middlesex, England) in a volume of 50 μl. The mice were divided into four groups (see Table 5 below for details). The intratumoral treatment was initiated when the tumours had reached the desired size of approximately 5 mm in diameter (minimum of 20 mm^2).
Three dose levels of LTX-315, 1 mg (Group 1), 0.5 mg (Group 2) and 0.25 mg (Group 3) per injection, were investigated. The volume was 50 μl for all injections. LTX-315 was dissolved in sterile 0.9% NaCl water solution. This vehicle was used as control (Group 4). All four groups received three injections.
A caliper was used for tumour size measurements and weighing and physical examination were used as health control.
Animals: Specific pathogen-free female Balb/c mice, 6-8 weeks old, supplied form Harlan (England, UK)

Compound | IC50 values against the 10 human lymphoma cell lines (cytolytic activity), in words [1] | IC50 values against 37 human cancer cell lines (cytolytic activity), in words [2] | necrosis and wound formation [3]
NCCCC[C@H](NC(=O)[C@H](Cc1c[nH]c2ccccc12)NC(=O)[C@H](CCCCN)NC(=O)[C@H](CCCCN)NC(=O)[C@@H](NC(=O)[C@H](Cc1c[nH]c2ccccc12)NC(=O)[C@H](CCCCN)NC(=O)[C@H](CCCCN)NC(=O)[C@@H](N)Cc1c[nH]c2ccccc12)C(c1ccccc1)c1ccccc1)C(N)=O [LTX-302, W-K-K-W-Dip-K-K-W-K-NH2] (H-WKKW[Dip]KKWK-NH2; N-terminus assumed) | micromolar range | micromolar to ten micromolar range | –
NCCCC[C@H](NC(=O)[C@H](Cc1c[nH]c2ccccc12)NC(=O)[C@H](Cc1c[nH]c2ccccc12)NC(=O)[C@H](CCCCN)NC(=O)[C@H](CCCCN)NC(=O)[C@H](Cc1c[nH]c2ccccc12)NC(=O)[C@H](Cc1ccc(-c2ccccc2)cc1)NC(=O)[C@H](CCCCN)NC(=O)[C@@H](N)CCCCN)C(N)=O [LTX-313, K-K-Bip-W-K-K-W-W-K-NH2] (H-KK[Bip]WKKWWK-NH2; N-terminus assumed) | micromolar range | micromolar to ten micromolar range | –
NCCCC[C@H](NC(=O)[C@@H](NC(=O)[C@H](Cc1c[nH]c2ccccc12)NC(=O)[C@H](CCCCN)NC(=O)[C@H](CCCCN)NC(=O)[C@H](Cc1c[nH]c2ccccc12)NC(=O)[C@H](Cc1c[nH]c2ccccc12)NC(=O)[C@H](CCCCN)NC(=O)[C@@H](N)CCCCN)C(c1ccccc1)c1ccccc1)C(N)=O [LTX-315, K-K-W-W-K-K-W-Dip-K-NH2] (H-KKWWKKW[Dip]K-NH2) | – | – | stronger necrosis and more wound formation
N=C(N)NCCC[C@H](NC(=O)[C@H](Cc1c[nH]c2ccccc12)NC(=O)[C@H](Cc1c[nH]c2ccccc12)NC(=O)[C@H](CCCNC(=N)N)NC(=O)[C@H](CCCNC(=N)N)NC(=O)[C@@H](NC(=O)[C@H](Cc1c[nH]c2ccccc12)NC(=O)[C@H](CCCNC(=N)N)NC(=O)[C@@H](N)CCCNC(=N)N)C(c1ccccc1)c1ccccc1)C(N)=O [LTX-320, R-R-W-Dip-R-R-W-W-R-NH2] (H-RRW[Dip]RRWWR-NH2; N-terminus assumed) | micromolar range | micromolar to ten micromolar range | –
NCCCC[C@@H](N)C(=O)N[C@H](CCCCN)C(=O)N[C@H](Cc1ccc(-c2ccccc2)cc1)C(=O)N[C@H](Cc1c[nH]c2ccccc12)C(=O)N[C@H](CCCCN)C(=O)N[C@H](CCCCN)C(=O)N[C@H](Cc1c[nH]c2ccccc12)C(=O)N[C@H](Cc1c[nH]c2ccccc12)C(=O)N[C@H](CCCCN)C(N)=O [LTX-329, k-k-bip-w-k-k-w-w-k-NH2] (H-[dK][dK][dBip][dW][dK][dK][dW][dW][dK]-NH2; N-terminus assumed) | micromolar range | micromolar to ten micromolar range | –

Source: patent US9241968B2, “Nonapeptide with anti-tumour activity” (Lytix Biopharma AS, priority 2008, dated 2016)
